# Results taken from patent US8524754B2, “Polymorphic, crystalline and mesophase forms of sodium 2-(5-bromo-4-(4-cyclopropylnaphthalen-1-yl)-4H-1,2,4-triazol-3-ylthio) acetate, and uses thereof” (Ardea Biosciences, Inc., priority 2010, dated 2013).
# Assay: Solid-state stability of packaged Form A / crystalline polymorphs under accelerated and long term conditions
# Type: physicochemical
# Conditions: for degradation of packaged Form A: double LDPE bag inside heat sealed anhydrous foil bag in HDPE container
# Method: Form A of sodium 2-(5-bromo-4-(4-cyclopropylnaphthalen-1-yl)-4H-1,2,4-triazol-3-ylthio)acetate was tested under various conditions to determine thermodynamic stability. […] Packaging was in a double low density polyethylene plastic bag inside a heat sealed anhydrous foil bag in an HDPE container.
# The improved stability of the crystalline polymorphs of sodium 2-(5-bromo-4-(4-cyclopropylnaphthalen-1-yl)-4H-1,2,4-triazol-3-ylthio)acetate provides for the preparation of pharmaceutical dosage forms displaying reduced variability in the dosage present in a given dosage form, reduction in the presence of impurities in the final pharmaceutical product, and an improved shelf life of formulated dosage forms when compared to the pharmaceutical dosage form prepared with the amorphous solid state form of the carboxylic acid.
structure (smiles),measurement,setting,value
"O=C([O-])CSc1nnc(Br)n1-c1ccc(C2CC2)c2ccccc12.[Na+] [Form A, sodium 2-(5-bromo-4-(4-cyclopropylnaphthalen-1-yl)-4H-1,2,4-triazol-3-ylthio)acetate]",degradation of packaged Form A,"accelerated conditions (40° C.-75% RH), 6 months",No degradation
same,degradation of packaged Form A,"long term conditions (25° C.-60% RH), 12 months",no degradation
same,stability in comparison to the amorphous solid state form of the carboxylic acid (free acid),solid state,improvement over the solid state amorphous free acid
